Where two headings read alike, the source gives them in different places.

One data set deals with Dyrk1B (Homo sapiens, UniProt Q9Y463). The data set is described as follows: Z'-LYTE kinase inhibition assay, Dyrk1B. Type of data set: biochemical. The note with it: for inhibition at 1 µM: read-out: Dyrk1B % Inh. At 1 µM. An excerpt: (§1) 3. Experimental procedure for protein kinases and inhibition assays.
(§2) 3.1 The Z ́ -LYTE biochemical assay for screening and IC 50 determination for Clk1, Dyrk1A, Dyrk1B, Clk2 and Clk3 kinases.
(§3) The assay employs a fluorescence-based, coupled-enzyme format and is based on the differential sensitivity of phosphorylated and non-phosphorylated peptides to proteolytic cleavage. The peptide substrate is labeled with two fluorophores-one at each end-that make up a FRET pair. In the primary reaction, the kinase transfers the gamma-phosphate of ATP to a single tyrosine, serine, or threonine residue in a synthetic FRET-peptide. In the secondary reaction, a site-specific protease recognizes and cleaves non-phosphorylated FRET-peptides. Phosphorylation of FRET-peptides suppresses cleavage by the Development Reagent. Cleavage disrupts FRET between the donor (i.e., coumarin) and acceptor (i.e., fluorescein) fluorophores on the FRET-peptide, whereas uncleaved, phosphorylated FRET-peptides maintain FRET. A ratiometric method, which calculates the ratio (the Emission Ratio) of donor emission to acceptor emission after excitation of the donor fluorophore at 400 nm, is used to quantitate reaction progress. Both cleaved and uncleaved FRET-peptides contribute to the fluorescence signals and therefore to the Emission Ratio. The extent of phosphorylation of the FRET-peptide can be calculated from the Emission Ratio. The Emission Ratio will remain low if the FRET-peptide is phosphorylated (i.e., no kinase inhibition) and will be high if the FRET-peptide is non-phosphorylated (i.e., kinase inhibition).
(§4) The IC 50 values were determined for compounds displaying significant % inhibition in the screening step. IC 50 determination was done through testing at a range of concentrations with two […]
(§5) two independent experiments. […]
3.1.3 Dyrk1B kinase assay specific conditions:
The 2X Dyrk1B / Ser/Thr 18 mixture is prepared in 50 mM HEPES pH 6.5, 0.01% BRIJ-35, 10 […]
mM MgCl2, 1 mM EGTA, 0.02% NaN3.
(§6) Development Reagent A is added. […]
(§7) MgCl2, 1 mM EGTA, 0.02% NaN3. […]

Data set [1] has as its target T1, Clk1 (Homo sapiens, UniProt P49759). The data set is described as follows: Z'-LYTE kinase inhibition assay, Clk1. It is filed as biochemical. The following applies: for IC50: ATP conc. equivalent to Km; for inhibition at 1 µM: read-out: Clk1 % Inh. At 1 µM.
From the text: as §1, §2, §3, §4
two independent experiments.
3.1.1 Clk1 kinase assay specific conditions:
The 2x Clk1 / Ser/Thr 09 mixture is prepared in 50 mM HEPES pH 7.5, 0.01% BRIJ-35, 10 mM MgCl 2, 1 mM EGTA. The final 10 μL kinase reaction consists of 30 - 120 ng Clk1 and 2 μM Ser/Thr 09 in 50 mM HEPES pH 7.5, 0.01% BRIJ-35, 10 mM MgCl 2, 1 mM EGTA. After the 1 h

Another data set deals with Dyrk1A (Homo sapiens, UniProt Q13627). The data set is described as follows: Z'-LYTE kinase inhibition assay, Dyrk1A. The note with it: for inhibition at 1 µM: read-out: Dyrk1A % Inh. At 1 µM. It is filed as biochemical.
From the text: as §1, §2, §3, §4, §5
3.1.2 Dyrk1A kinase assay specific conditions:
The 2x Dyrk1A / Ser/Thr 18 mixture is prepared in 50 mM HEPES pH 7.5, 0.01% BRIJ-35, 10 […]
2 µM Ser/Thr 18 in 50 mM HEPES pH 7.5, 0.01% BRIJ-35, 10 mM MgCl 2, 1 mM EGTA. […]
as §6, §7

Data set [2] has as its target T1, Clk1. Also on record: method as in PMID 28561591, PMID 25221649. The note with it: Figure 1; ref [38],[45]; cited from earlier work.

Sequence of Dyrk1B (Q9Y463 whole entry): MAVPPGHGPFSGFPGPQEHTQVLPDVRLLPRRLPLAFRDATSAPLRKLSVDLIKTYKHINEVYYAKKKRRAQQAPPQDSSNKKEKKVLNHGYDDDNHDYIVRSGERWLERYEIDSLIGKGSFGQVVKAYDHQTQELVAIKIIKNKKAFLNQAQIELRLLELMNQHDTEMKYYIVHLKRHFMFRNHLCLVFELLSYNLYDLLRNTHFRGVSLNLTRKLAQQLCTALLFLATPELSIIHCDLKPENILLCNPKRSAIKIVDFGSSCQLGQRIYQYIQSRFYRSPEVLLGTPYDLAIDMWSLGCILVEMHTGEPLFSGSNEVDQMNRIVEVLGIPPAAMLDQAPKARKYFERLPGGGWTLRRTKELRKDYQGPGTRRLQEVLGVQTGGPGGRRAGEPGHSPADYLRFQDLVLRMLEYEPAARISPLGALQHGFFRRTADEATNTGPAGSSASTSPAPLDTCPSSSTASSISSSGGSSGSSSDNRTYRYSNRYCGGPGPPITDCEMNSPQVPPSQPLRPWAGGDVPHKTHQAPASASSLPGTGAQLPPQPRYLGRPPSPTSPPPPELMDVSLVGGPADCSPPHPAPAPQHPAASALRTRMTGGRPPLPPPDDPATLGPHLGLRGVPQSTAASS
T1 sequence (P49759 whole entry): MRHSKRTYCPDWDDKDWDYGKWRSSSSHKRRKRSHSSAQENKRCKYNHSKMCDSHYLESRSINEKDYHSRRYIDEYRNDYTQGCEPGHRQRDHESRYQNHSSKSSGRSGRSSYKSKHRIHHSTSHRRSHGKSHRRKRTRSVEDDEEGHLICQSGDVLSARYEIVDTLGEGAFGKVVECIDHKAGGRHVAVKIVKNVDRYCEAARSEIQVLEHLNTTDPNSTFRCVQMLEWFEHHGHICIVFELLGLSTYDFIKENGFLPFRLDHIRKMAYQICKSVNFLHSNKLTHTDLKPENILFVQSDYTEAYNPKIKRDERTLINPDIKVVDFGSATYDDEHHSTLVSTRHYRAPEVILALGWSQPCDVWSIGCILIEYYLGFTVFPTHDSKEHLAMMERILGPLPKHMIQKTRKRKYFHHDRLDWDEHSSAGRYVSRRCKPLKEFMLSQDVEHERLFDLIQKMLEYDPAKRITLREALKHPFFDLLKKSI

`O=C(NCc1cccs1)c1cc2cc(O)ccc2s1` [Compound 27, 5-Hydroxy-N-(thiophen-2-ylmethyl)benzo[b]thiophene-2-carboxamide] returned a melting point of 139.6 to 141.4 °C. The IC50 on Dyrk1B (ATP conc. equivalent to Km) worked out at 703 nM. Moreover, on Dyrk1B, the inhibition at 1 µM was 61%. Further, at Clk1 [1], the IC50 came out at 705 nM and the inhibition at 1 µM is 60%. In addition, on Dyrk1A, the inhibition at 1 µM worked out at 53%.

For the molecule `O=C(NCc1ccco1)c1cc2cc(O)ccc2s1` [Compound 28, N-(Furan-2-Ylmethyl)-5-hydroxybenzo[b]thiophene-2-carboxamide], the melting point fell in the range of 99.2 to 101.6 °C. For the same molecule, at Dyrk1B, the inhibition at 1 µM worked out at 52%. Also, on Clk1 [1], the IC50 was determined as 585 nM and the inhibition at 1 µM was determined as 61%. The IC50 on Dyrk1A (ATP conc. equivalent to Km) worked out at 779 nM. For the same molecule, the inhibition at 1 µM on Dyrk1A is 66%.

The molecule `O=C(NCCc1ccccc1)c1cc2cc(O)ccc2s1` [Compound 29, 5-Hydroxy-N-phenethylbenzo[b]thiophene-2-carboxamide] came in with a melting point of 99.2 to 101.1 °C. Besides, the inhibition at 1 µM at Dyrk1B was found to be 48%. Moreover, on Clk1 [1], the IC50 was 753 nM and the inhibition at 1 µM came to 61%. Also, at Dyrk1A, the inhibition at 1 µM is 29%.

`O=C(NCCc1c[nH]c2ccccc12)c1cc2cc(O)ccc2s1` [Compound 30, N-(2-(1H-Indol-3-yl)ethyl)-5-hydroxybenzo[b]thiophene-2-carboxamide] gave a melting point of 211.4 to 213 °C. Further, the inhibition at 1 µM at Dyrk1B was determined as 40%. Besides, on Clk1 [1], the IC50 is 350 nM and the inhibition at 1 µM amounted to 74%. Besides, on Dyrk1A, the inhibition at 1 µM was found to be 20%.

Consider `CC(=O)c1cc2cc(O)ccc2s1` [Compound (i)], for which, on Clk1 [2], the IC50 is 50 nM.

Consider `Cc1ccc(C(=O)c2cc3cc(O)ccc3s2)cc1O` [Compound (ii)], for which the IC50 at Clk1 [2] is 60 nM.

(Values after paper PMC11171218, “N-Benzylated 5-Hydroxybenzothiophene-2-carboxamides as Multi-Targeted Clk/Dyrk Inhibitors and Potential Anticancer Agents” (Cancers, 2024).)
